Each structure is given as a SMILES string.

The target of data set [1] is MMP-13CD (catalytic domain of collagenase-3) (Homo sapiens, UniProt P45452). The data set is described as follows: thiopeptolide substrate hydrolysis assay, MMP-13CD. Format: biochemical. The text has this:
(§1) The invention compounds of Formula I have been evaluated in standard assays for their ability to inhibit the activity of various MMP enzymes. The assays used to evaluate the biological activity of the invention compounds are well known and routinely used by those skilled in the study of MMP inhibitors and their use to treat clinical conditions.
(§2) Such assays are described in detail by Ye et al., in Biochemistry, 1992;31(45):11231-11235, which is incorporated herein by reference.
(§3) Thiopeptolide substrates show virtually no decomposition or hydrolysis in the absence of a matrix metalloproteinase enzyme. A typical thiopeptolide substrate commonly utilized for assays is Ac-Pro-Leu-Gly-thioester;-Leu-Leu-Gly-OEt. A 100 μL assay mixture will contain 50 mM of 2-morpholinoethane sulfonic acid monohydrate (MES, pH 6.0) 10 mM CaCl2, 100 μM thiopeptolide substrate, and 1 mM 5,5′-dithio-bis-(2-nitro-benzoic acid) (DTNB). The thiopeptolide substrate concentration is varied from 10 to 800 μM to obtain Km and Kcat values. The change in absorbance at 405 nm is monitored on a Thermo Max microplate reader (Molecular Devices, Menlo Park, Calif.) at room temperature (22° C.). The calculation of the amount of hydrolysis of the thiopeptolide substrate is based on E412=13600 m^−1 cm^−1 for the DTNB-derived product 3-carboxy-4-nitrothiophenoxide. Assays are carried out with and without matrix metalloproteinase inhibitor compounds, and the amount of hydrolysis is compared for a determination of inhibitory activity of the test compounds.
Several representative compounds have been evaluated for their ability to inhibit various matrix metalloproteinase enzymes. The invention compounds are uniquely active in inhibiting MMP-13. Table 1 below presents inhibitory activity for invention compounds in the column labelled “MMP-13CD IC50, μM”. In the table, MMP-13CD refers to the catalytic domain of collagenase-3. It has been shown previously (Ye Qi-Zhuang, Hupe D., Johnson L., Current Medicinal Chemistry, 1996;3:407-418) that inhibitor activity against a catalytic domain of an MMP is predictive of the inhibitor activity against the respective full-length enzyme. Test compounds were evaluated at various concentrations in order to determine their respective IC50 values, the micromolar concentration of compound required to cause a 50% inhibition of the hydrolytic activity of the respective enzyme.

A further data set has as its target T1, MMP-7 (Homo sapiens, UniProt P09237).
T1 sequence (P09237 95-267): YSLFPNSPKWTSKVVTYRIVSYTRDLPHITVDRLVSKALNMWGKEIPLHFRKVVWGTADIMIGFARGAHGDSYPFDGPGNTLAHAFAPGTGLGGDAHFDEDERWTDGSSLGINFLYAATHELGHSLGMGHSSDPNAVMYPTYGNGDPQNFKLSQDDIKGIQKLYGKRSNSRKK
The data set is described as follows: thiopeptolide substrate hydrolysis assay, MMP-7. The settings on record: Table 2. Format: biochemical.
Excerpt: as §1, §2, §3
(§4) The invention compounds are also selective inhibitors of MMP-13 versus other MMP enzymes, including versus MMP-7 and MMP-9. This is shown by comparing the IC50 data presented below in Table 2 in the columns labeled “MMP-7 IC50 (μM),” “MMP-9CD IC50 (μM),” and “MMP-13CD IC50 (μM),” respectively.

Another data set concerns the target T2, MMP-9CD (Homo sapiens, UniProt P14780).
T2 construct: "MMP-9CD"
T2 sequence (P14780 with tags, fused parts or gaps DEL216-390 limits assumed): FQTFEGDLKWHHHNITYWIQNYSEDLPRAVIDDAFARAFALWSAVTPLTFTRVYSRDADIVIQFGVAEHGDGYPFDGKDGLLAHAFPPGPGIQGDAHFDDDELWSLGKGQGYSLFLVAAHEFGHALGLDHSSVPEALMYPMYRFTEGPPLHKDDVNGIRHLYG
As to the kind of experiment: thiopeptolide substrate hydrolysis assay, MMP-9CD. The data set is classed as biochemical. The settings on record: Table 2, catalytic domain.
Excerpt: as §1, §2, §3, §4

One may read the melting point as the temperature of the solid-liquid transition. What is called IC50 is the concentration needed to halve the response being measured. Lower therefore signals greater potency in that assay. Compound `COc1cc(C(=O)OCc2ccc3c(c2)OCO3)sc1C(=O)OCc1ccc2c(c1)OCO2` [Example 3, 3-Methoxy-thiophene-2,5-dicarboxylic Acid di-1,3-benzodioxol-5-ylmethyl Ester] came in with a melting point of 153 to 155 °C. This compound yielded a half-maximal inhibitory concentration (IC50) in data set [1] (Table 1) of 3.6 µM.
For `O=C(NCc1ccccc1)Nc1nnc(C(=O)OCc2ccccc2)s1` [Example 23, 5-(3-Benzyl-ureido)-1,3,4-thiadiazole-2-carboxylic Acid Benzyl Ester], the melting point was 188 to 192 °C. In data set [1] (Table 1), this compound gave a 50% inhibitory concentration (IC50) of 30 µM.
With `Cc1sc(C(=O)OCc2ccc3c(c2)OCO3)cc1NC(=O)Cc1ccccc1` [Example 11, 5-Methyl-4-phenylacetylamino-thiophene-2-carboxylic Acid 1,3-benzodioxol-5-ylmethyl Ester], half-maximal inhibition in data set [1] (Table 1) (IC50) required 0.19 µM.
`O=C(NCc1ccc2c(c1)OCO2)c1csc(C(=O)NCc2ccc3c(c2)OCO3)c1` [Example 6, Thiophene-2,4-dicarboxylic Acid bis-[(1,3-benzodioxol-5-ylmethyl)-amide]] displayed a melting point of 174 to 175 °C. In data set [1] (Table 1), the concentration for half-maximal inhibition (IC50) was 0.37 µM. Besides, at MMP-7, the 50% inhibitory concentration (IC50) came out at 32 µM.
On to `Cc1sc(C(=O)OCc2ccccc2)cc1NC(=O)NCc1ccccc1` [Example 13, 4-(3-Benzyl-ureido)-5-methyl-thiophene-2-carboxylic Acid Benzyl Ester], for which the melting point lay in the range of 208 to 209 °C. For the same compound, the half-maximal inhibitory concentration (IC50) at MMP-9CD worked out at 30 µM. For the same compound, it took 22 µM to reach half-maximal inhibition in data set [1] (Table 1) (IC50). The compound further showed a half-maximal inhibitory concentration (IC50) on MMP-7 of 30 µM.
The compound `Cn1cc(C(=O)OCc2ccc3c(c2)OCO3)cc1C(=O)OCc1ccc2c(c1)OCO2` [Example 7, 1-Methyl-1H-pyrrole-2,4-dicarboxylic Acid di-1,3-benzodioxol-5-ylmethyl Ester] showed a melting point of 103 to 110 °C. In data set [1] (Table 1), this compound showed an IC50 of 0.97 µM.
`Cc1sc(C(=O)OCc2ccc3c(c2)OCO3)cc1NC(=O)NCc1ccccc1` [Example 15a, 4-(3-Benzyl-ureido)-5-methyl-thiophene-2-carboxylic Acid 1,3-benzodioxol-5-ylmethyl Ester] came in with a melting point of 216 to 217 °C. Also, 0.35 µM corresponded to half-maximal inhibition in data set [1] (Table 2) (IC50).
For the compound `O=C(OCc1ccc2c(c1)OCO2)c1ccc(C(=O)OCc2ccc3c(c2)OCO3)s1` [Example 1, Thiophene-2,5-dicarboxylic Acid di-1,3-benzodioxol-5-ylmethyl Ester], the melting point fell in the range of 141 to 148 °C. Besides, in data set [1] (Table 1), the concentration for half-maximal inhibition (IC50) stood at 8.6 µM.
For `Cc1sc(C(=O)NCc2ccc3c(c2)OCO3)cc1NC(=O)Cc1ccccc1` [Example 12, 5-Methyl-4-phenylacetylamino-thiophene-2-carboxylic Acid (1,3-benzodioxol-5-ylmethyl)-amide], in that order: 138 to 140 °C and 2.7 µM.
On to `O=C(NCc1ccc2c(c1)OCO2)c1ccc(C(=O)NCc2ccc3c(c2)OCO3)s1` [Example 2, Thiophene-2,5-dicarboxylic Acid bis-[(1,3-benzodioxol-5-ylmethyl)-amide]], for which the melting point was 207 to 209 °C. The compound also showed a 50% inhibitory concentration (IC50) against MMP-9CD of 30 µM. In data set [1] (Table 1), the IC50 was 0.85 µM. The same compound had a half-maximal inhibitory concentration (IC50) against MMP-7 of 30 µM.
Compound `COC(=O)c1cc(NC(=O)NCc2ccccc2)c(C)s1` [Example 16, 5-Methyl-4-(3-benzyl-ureido)-thiophene-2-carboxylic Acid Methyl Ester] registered a melting point of 185 to 187 °C. The IC50 in data set [1] (Table 1) is 2 µM.
For the compound `Cn1cc(C(=O)NCc2ccc3c(c2)OCO3)cc1C(=O)NCc1ccc2c(c1)OCO2` [Example 8, 1-Methyl-1H-pyrrole-2,4-dicarboxylic Acid bis-[(1,3-benzodioxol-5-ylmethyl)-amide]], the melting point lay in the range of 147 to 152 °C. In addition, in data set [1] (Table 1), half-maximal inhibition (IC50) was put at 3 µM.
With `Cc1sc(C(=O)NCc2ccccc2)cc1NC(=O)NCc1ccccc1` [Example 14, 4-(3-Benzyl-ureido)-5-methyl-thiophene-2-carboxylic Acid Benzylamide], the 50% inhibitory concentration (IC50) on MMP-9CD was found to be 99 µM; in data set [1] (Table 1) it was 14 µM.
`Cc1sc(C(=O)NCc2ccc3c(c2)OCO3)cc1NC(=O)NCc1ccccc1` [Example 15b, 4-(3-Benzyl-ureido)-5-methyl-thiophene-2-carboxylic Acid (1,3-benzodioxol-5-ylmethyl)-amide] registered a melting point of 194 to 195 °C. Also, at MMP-9CD, the IC50 came out at 30 µM. The same compound yielded a half-inhibitory concentration (IC50) in data set [1] (Table 1) of 0.92 µM. The compound further showed a 50% inhibitory concentration (IC50) at MMP-7 of 45 µM.
`Cc1sc(C(=O)OCc2ccccc2)cc1NC(=O)Cc1ccccc1` [Example 9, 5-Methyl-4-phenylacetylamino-thiophene-2-carboxylic Acid Benzyl Ester] displayed a melting point of 173 to 174 °C. Besides, in data set [1] (Table 1), half-maximal inhibition (IC50) required 2.3 µM.
On to `CNc1sc(C(=O)NCc2ccc(OC)cc2)cc1C(=O)NCc1ccc(C(=O)O)c(C)c1` [Example 21, 4-({[5-(4-Methoxy-benzylcarbamoyl)-2-methylamino-thiophene-3-carbonyl]-amino}-methyl)-2-methyl-benzoic Acid], for which the midpoint of inhibition in data set [1] (Table 1), the IC50, lay at 3.4 µM.
In turn, `COc1cc(C(=O)NCc2ccc3c(c2)OCO3)sc1C(=O)NCc1ccc2c(c1)OCO2` [Example 4, 3-Methoxy-thiophene-2,5-dicarboxylic Acid bis-[(1,3-benzodioxol-5-ylmethyl)-amide]] registered a melting point of 191 to 195 °C. Further, the IC50 in data set [1] (Table 1) is 0.2 µM. In addition, at MMP-7, the IC50 came out at 30 µM.
Regarding `O=C(OCc1ccc2c(c1)OCO2)c1csc(C(=O)OCc2ccc3c(c2)OCO3)c1` [Example 5, Thiophene-2,4-dicarboxylic Acid di-1,3-benzodioxol-5-ylmethyl Ester], the melting point lay within 164 to 165 °C. This compound also displayed an IC50 against MMP-9CD of 30 µM. Inhibition in data set [1] (Table 1) was half-maximal at 0.45 µM (IC50). The same compound yielded a half-inhibitory concentration (IC50) against MMP-7 of 10 µM.
On to `COc1cc(C(=O)NCc2ccccc2)sc1C(=O)NCc1ccccc1` [Example 22, 3-Methoxy-thiophene-2,5-dicarboxylic Acid Bis Benzylamide], for which the IC50 in data set [1] (Table 1) is at least 100 µM.
As for `Cc1sc(C(=O)NCc2ccccc2)cc1NC(=O)Cc1ccccc1` [Example 10, 5-Methyl-4-phenylacetylamino-thiophene-2-carboxylic Acid Benzylamide], the half-inhibitory concentration (IC50) (against MMP-9CD; in data set [1] (Table 1)) was 30 µM each time.
